Test results reported in PMC3256212, “Mechanism and Function of Drosophila capa GPCR: A Desiccation Stress-Responsive Receptor with Functional Homology to Human NeuromedinU Receptor” (PLoS ONE, 2012).
pEC50: −log10 of the molar value. Peptide text beside a SMILES is read from it.

Tested on: tubule principal cells
Parameters: species or system Drosophila melanogaster
Experimental: All lines were maintained on a standard Drosophila diet at 22°C, 55% humidity on a 12∶12 h light∶dark photoperiod. Wild-type flies were obtained from a Canton-S (CS) stock. In order to drive cell- and tissue-specific gene expression of gene(s) of choice in vivo, the GAL4/UAS system was used, in which cell- or tissue-specific GAL4 ‘drivers’ enable binary expression of genes cloned downstream of the GAL4-binding Upstream Activating Sequence. Thus, for intact tubules, principal cell-specific expression can be driven using either c42-GAL4 [16] or Urate-Oxidase-GAL4 [17] drivers in an otherwise normal fly. […] Validation of the capaR RNAi line was confirmed by quantitative Q-RT-PCR using the primers 5′-[…]-3′ and 5′-[…]-3′ (Fig. S1). […]
Drosophila S2 cells, cultured under standard conditions were transiently transfected with the apoaequorin ORF [21] and a receptor ORF construct, and expression induced using CuSO4. […] Bioluminescence recordings were carried out using a Mithras LB940 automated 96-well plate reader (Berthold Technologies) and MikroWin software. […] At the end of each recording samples were disrupted by the addition of 100 µl lysis solution, and the [Ca^2+] concentrations calculated as previously described. […]

## CC(C)C[C@H](NC(=O)[C@H](Cc1ccccc1)NC(=O)[C@H](Cc1ccc(O)cc1)NC(=O)CNC(=O)[C@H](CCCNC(=N)N)NC(=O)[C@H](CO)NC(=O)[C@H](CCC(N)=O)NC(=O)[C@H](CO)NC(=O)[C@H](C)NC(=O)[C@H](Cc1ccccc1)NC(=O)[C@@H]1CCCN1C(=O)[C@H](CO)NC(=O)[C@H](CCC(N)=O)NC(=O)[C@H](Cc1ccccc1)NC(=O)[C@H](CCC(=O)O)NC(=O)[C@H](CCC(=O)O)NC(=O)[C@H](CC(=O)O)NC(=O)[C@@H](NC(=O)[C@H](CCCNC(=N)N)NC(=O)[C@@H](N)Cc1ccccc1)C(C)C)C(=O)N[C@@H](Cc1ccccc1)C(=O)N[C@@H](CCCNC(=N)N)C(=O)N1CCC[C@H]1C(=O)N[C@@H](CCCNC(=N)N)C(=O)N[C@@H](CC(N)=O)C(N)=O [NMU-25, reference compound] (H-FRVDEEFQSPFASQSRGYFLFRPRN-NH2)
  pEC50: 7.57
